System: statin-treated hypertriglyceridemic patients with cardiovascular disease or at high risk for cardiovascular disease
Experiment: REDUCE-IT: safety, treatment-emergent adverse events (incl. bleeding, atrial fibrillation/flutter, gastrointestinal)
[1] = REDUCE-IT safety population, 4 g/day
[2] = serious bleeding TEAE, % of N = 4089
[3] = serious bleeding TEAE, number (%) of N = 4089
[4] = serious bleeding TEAE, patients, N = 4089

CC/C=C\C/C=C\C/C=C\C/C=C\C/C=C\CCCC(=O)OCC [icosapent ethyl, eicosapentaenoic acid ethyl ester]
Serious TEAE (% of N = 4089): (30.6%) | Serious TEAE Leading to Death (% of N = 4089): (2.3%) | Serious TEAE Leading to Withdrawal of Study Drug (% of N = 4089): (2.2%) | Subjects with at Least One TEAE (% of N = 4089): (81.8%) | TEAE Leading to Withdrawal of Study Drug (% of N = 4089): (7.9%) | Pneumonia, serious treatment-emergent adverse event: % of patients (N = 4089, safety population): 2.6% | Pneumonia, serious treatment-emergent adverse event: number of patients (N = 4089, safety population): 105 | Anemia, adverse event rate [1]: 4.7% | Atrial fibrillation, adverse event rate [1]: 5.3% | Diarrhea, adverse event rate [1]: 9% | Gastrointestinal adverse events, rate [1]: 33.0% | Peripheral edema, adverse event rate [1]: 6.5% | Atrial fibrillation or flutter requiring hospitalization (prespecified adjudicated tertiary endpoint) (REDUCE-IT, 4 g/day): 3.1% | Fatal bleeding events (REDUCE-IT, 4 g/day): no fatal bleeding events | Gastrointestinal bleeding (serious) (REDUCE-IT, 4 g/day): 1.5% | Serious central nervous system bleeding (REDUCE-IT, 4 g/day): 0.3% | Tolerability (REDUCE-IT, 4 g/day): well tolerated | Treatment-emergent serious adverse events for bleeding, rate (REDUCE-IT, 4 g/day): 2.7% | Gastrointestinal disorders (TEAE, system organ class, number (%) of N = 4089): 1350 (33.0%) | Anemia (TEAE, number (%) of N = 4089): 191 (4.7%) | Angina pectoris (TEAE, number (%) of N = 4089): 200 (4.9%) | Arthralgia (TEAE, number (%) of N = 4089): 313 (7.7%) | Atrial fibrillation (TEAE, number (%) of N = 4089): 215 (5.3%) | Back pain (TEAE, number (%) of N = 4089): 335 (8.2%) | Bronchitis (TEAE, number (%) of N = 4089): 306 (7.5%) | Cataract (TEAE, number (%) of N = 4089): 233 (5.7%) | Chest pain (TEAE, number (%) of N = 4089): 273 (6.7%) | Constipation (TEAE, number (%) of N = 4089): 221 (5.4%) | Cough (TEAE, number (%) of N = 4089): 241 (5.9%) | Diarrhea (TEAE, number (%) of N = 4089): 367 (9.0%) | Dizziness (TEAE, number (%) of N = 4089): 235 (5.7%) | Dyspnea (TEAE, number (%) of N = 4089): 254 (6.2%) | Fatigue (TEAE, number (%) of N = 4089): 228 (5.6%) | Gastroesophageal Reflux Disease (TEAE, number (%) of N = 4089): 124 (3.0%) | Hypertension (TEAE, number (%) of N = 4089): 320 (7.8%) | Influenza (TEAE, number (%) of N = 4089): 263 (6.4%) | Nasopharyngitis (TEAE, number (%) of N = 4089): 314 (7.7%) | Nausea (TEAE, number (%) of N = 4089): 190 (4.6%) | Osteoarthritis (TEAE, number (%) of N = 4089): 241 (5.9%) | Pain in extremity (TEAE, number (%) of N = 4089): 235 (5.7%) | Peripheral edema (TEAE, number (%) of N = 4089): 267 (6.5%) | Pneumonia (TEAE, number (%) of N = 4089): 263 (6.4%) | Upper respiratory tract infection (TEAE, number (%) of N = 4089): 312 (7.6%) | Urinary tract infection (TEAE, number (%) of N = 4089): 253 (6.2%) | Positively Adjudicated Atrial Fibrillation/Flutter (hospitalization for atrial fibrillation or atrial flutter, number (%) of N = 4089): 127 (3.1%) | Serious TEAE (number of subjects, N = 4089): 1252 | Serious TEAE Leading to Death (number of subjects, N = 4089): 94 | Serious TEAE Leading to Withdrawal of Study Drug (number of subjects, N = 4089): 88 | TEAE Leading to Withdrawal of Study Drug (number of subjects, N = 4089): 321 | Subjects with at Least One TEAE (number of subjects, Safety population N = 4089): 3343 | Aortic Aneurysm Rupture [2]: (0.0%) | Brain Contusion [2]: (0.0%) | Catheter Site Hemorrhage [2]: (0.0%) | Central Nervous System Bleeding [2]: (0.3%) | Cerebral Hemorrhage [2]: (0.0%) | Cystitis Hemorrhagic [2]: (0.0%) | Diverticulitis Intestinal Hemorrhagic [2]: (0.0%) | Diverticulum Intestinal Hemorrhagic [2]: (0.1%) | Duodenal Ulcer Hemorrhage [2]: (0.0%) | Ecchymosis [2]: (0.0%) | Epistaxis [2]: (0.2%) | Esophageal Hemorrhage [2]: (0.0%) | Extravasation Blood [2]: (0.0%) | Gastric Hemorrhage [2]: (0.0%) | Gastric Ulcer Hemorrhage [2]: (0.1%) | Gastrointestinal Angiodysplasia Hemorrhagic [2]: (0.0%) | Gastrointestinal Bleeding [2]: (1.5%) | Gastrointestinal Hemorrhage [2]: (0.6%) | Genital Hemorrhage [2]: (0.0%) | Hemarthrosis [2]: (0.0%) | Hematemesis [2]: (0.1%) | Hematochezia [2]: (0.0%) | Hematoma [2]: (0.0%) | Hematuria [2]: (0.2%) | Hemoptysis [2]: (0.0%) | Hemorrhagic Anemia [2]: (0.1%) | Hemorrhagic Duodenitis [2]: (0.0%) | Hemorrhagic Transformation Stroke [2]: (0.0%) | Hemorrhoidal Hemorrhage [2]: (0.1%) | Hemothorax [2]: (0.0%) | Immune Thrombocytopenic Purpura [2]: (0.0%) | Intra-Abdominal Hemorrhage [2]: (0.0%) | Intracranial Hemorrhage [2]: (0.0%) | Large Intestinal Hemorrhage [2]: (0.0%) | Lower Gastrointestinal Hemorrhage [2]: (0.1%) | Mallory-Weiss Syndrome [2]: (0.0%) | Melaena [2]: (0.1%) | Menorrhagia [2]: (0.0%) | Mouth Hemorrhage [2]: (0.0%) | Other Bleeding [2]: (1.0%) | Pancreatitis Hemorrhagic [2]: (0.0%) | Patients with Bleeding-Related Disorders [2]: (2.7%) | Peptic Ulcer Hemorrhage [2]: (0.0%) | Pericardial Hemorrhage [2]: (0.0%) | Post Procedural Hematoma [2]: (0.0%) | Post Procedural Hematuria [2]: (0.0%) | Post Procedural Hemorrhage [2]: (0.1%) | Rectal Hemorrhage [2]: (0.2%) | Renal Hemorrhage [2]: (0.0%) | Retinal Hemorrhage [2]: (0.0%) | Retroperitoneal Hematoma [2]: (0.0%) | Retroperitoneal Hemorrhage [2]: (0.0%) | Shock Hemorrhagic [2]: (0.0%) | Subarachnoid Hemorrhage [2]: (0.0%) | Subdural Hematoma [2]: (0.2%) | Subdural Hemorrhage [2]: (0.0%) | Traumatic Hematoma [2]: (0.0%) | Traumatic Intracranial Hemorrhage [2]: (0.0%) | Ulcer Hemorrhage [2]: (0.0%) | Upper Gastrointestinal Hemorrhage [2]: (0.1%) | Urinary Bladder Hemorrhage [2]: (0.0%) | Bleeding related disorders [3]: 111 (2.7%) | Central Nervous System Bleeding [3]: 14 (0.3%) | Gastrointestinal Bleeding [3]: 62 (1.5%) | Other Bleeding [3]: 41 (1.0%) | Aortic Aneurysm Rupture [4]: 1 | Brain Contusion [4]: 0 | Catheter Site Hemorrhage [4]: 0 | Central Nervous System Bleeding [4]: 14 | Cerebral Hemorrhage [4]: 0 | Cystitis Hemorrhagic [4]: 2 | Diverticulitis Intestinal Hemorrhagic [4]: 0 | Diverticulum Intestinal Hemorrhagic [4]: 3 | Duodenal Ulcer Hemorrhage [4]: 2 | Ecchymosis [4]: 1 | Epistaxis [4]: 7 | Esophageal Hemorrhage [4]: 0 | Extravasation Blood [4]: 1 | Gastric Hemorrhage [4]: 1 | Gastric Ulcer Hemorrhage [4]: 3 | Gastrointestinal Angiodysplasia Hemorrhagic [4]: 1 | Gastrointestinal Bleeding [4]: 62 | Gastrointestinal Hemorrhage [4]: 26 | Genital Hemorrhage [4]: 1 | Hemarthrosis [4]: 0 | Hematemesis [4]: 3 | Hematochezia [4]: 1 | Hematoma [4]: 1 | Hematuria [4]: 8 | Hemoptysis [4]: 1 | Hemorrhagic Anemia [4]: 4 | Hemorrhagic Duodenitis [4]: 0 | Hemorrhagic Transformation Stroke [4]: 1 | Hemorrhoidal Hemorrhage [4]: 3 | Hemothorax [4]: 1 | Immune Thrombocytopenic Purpura [4]: 0 | Intra-Abdominal Hemorrhage [4]: 1 | Intracranial Hemorrhage [4]: 0 | Large Intestinal Hemorrhage [4]: 1 | Lower Gastrointestinal Hemorrhage [4]: 5 | Mallory-Weiss Syndrome [4]: 1 | Melaena [4]: 3 | Menorrhagia [4]: 1 | Mouth Hemorrhage [4]: 0 | Other Bleeding [4]: 41 | Pancreatitis Hemorrhagic [4]: 1 | Patients with Bleeding-Related Disorders [4]: 111 | Peptic Ulcer Hemorrhage [4]: 1 | Pericardial Hemorrhage [4]: 0 | Post Procedural Hematoma [4]: 1 | Post Procedural Hematuria [4]: 0 | Post Procedural Hemorrhage [4]: 5 | Rectal Hemorrhage [4]: 10 | Renal Hemorrhage [4]: 0 | Retinal Hemorrhage [4]: 1 | Retroperitoneal Hematoma [4]: 0 | Retroperitoneal Hemorrhage [4]: 1 | Shock Hemorrhagic [4]: 2 | Subarachnoid Hemorrhage [4]: 2 | Subdural Hematoma [4]: 9 | Subdural Hemorrhage [4]: 2 | Traumatic Hematoma [4]: 2 | Traumatic Intracranial Hemorrhage [4]: 0 | Ulcer Hemorrhage [4]: 1 | Upper Gastrointestinal Hemorrhage [4]: 3 | Urinary Bladder Hemorrhage [4]: 1

From patent US20210308089A1, “METHODS OF TREATING AND/OR PREVENTING VIRAL INFECTIONS AND/OR DISEASES CAUSED BY VIRUSES IN A SUBJECT IN NEED THEREOF” (priority 2020, published 2021)
